SMILES strings stand for the structures. Where a SMILES comes first, the peptide text is derived from it. Bridges are numbered along the chain shown (N, C = ends).

Experiment [1] relates to gastric emptying in conscious rats. Conditions: rat, in vivo. From the text:
Peptide compounds of the present invention may be evaluated for amylin agonist activity using the methods of measuring the rate of gastric emptying disclosed in, for example, Young et al., Diabetologia, 38(6):642-648 (1995). In a phenol red method, which is described in Example D below, conscious rats receive by gavage an a caloric gel containing methyl cellulose and a phenol red indicator. Twenty minutes after gavage, animals are anesthetized using halothane, the stomach exposed and clamped at the pyloric and lower esophageal sphincters, removed and opened into an alkaline solution. Stomach content may be derived from the intensity of the phenol red in the alkaline solution, measured by absorbance at a wavelength of 560 nm. In a tritiated glucose method, conscious rats are gavaged with tritiated glucose in water. The rats are gently restrained by the tail, the tip of which is anesthetized using lidocaine. Tritium in the plasma separated from tail blood is collected at various timepoints and detected in a beta counter. Test compounds are normally administered about one minute before gavage.
Phenol Red Gastric Emptying Assay:
Gastric emptying was measured using a modification (Plourde et al., Life Sci. 53:857-862 (1993)) of the original method of Scarpignato et al. (Arch. Int. Pharmacodyn. Ther. 246:286-295 (1980)). Conscious rats received by gavage. 1.5 mL of an a caloric gel containing 1.5% methyl cellulose (M-0262, Sigma Chemical Co., St. Louis, Mo.) and 0.05% phenol red indicator. Twenty minutes after gavage, rats were anesthetized using 5% halothane, the stomach exposed and clamped at the pyloric and lower esophageal sphincters using artery forceps, removed and opened into an alkaline solution which was made up to a fixed volume. Stomach content was derived from the intensity of the phenol red in the alkaline solution, measured by absorbance at a wavelength of 560 nm. […] In other experiments, particulate gastric contents were centrifuged to clear the solution for absorbance measurements. Where the diluted gastric contents remained turbid, the spectroscopic absorbance due to phenol red was derived as the difference between that present in alkaline versus acidified dilutent.
In separate experiments on 7 rats, the stomach and small intestine were both excised and opened into an alkaline solution. […] Percent gastric emptying contents remaining=(absorbance at 20 min)/(absorbance at 0 min). For those compounds for which ED50 data is presented, dose response curves for gastric emptying were fitted to a 4-parameter logistic model using a least-squares iterative routine (ALLFIT, v2.7, NIH, Bethesda, Md.) to derive ED50 s. Because ED50 is log-normally distributed, it is expressed ± standard error of the logarithm. Pairwise comparisons were performed using one-way analysis of variance and the Student-Newman-Keuls multiple comparisons test (Instat v2.0, GraphPad Software, San Diego, Calif.) using P<0.05 as the level of significance.
As a reference point for dose response studies, rat amylin (Bachem, Torrance, Calif.) dissolved in 0.15M saline, was administered as a 0.1 mL subcutaneous bolus in doses of 0, 0.01, 0.1, 1, 10 or 100 μg 5 minutes before gavage in Harlan Sprague Dawley (non-diabetic) rats fasted 20 hours and diabetic BB rats fasted 6 hours.

The target of experiment [2] is T1, C1a receptor (C1a-type calcitonin receptor) (Rattus norvegicus, UniProt P32214).
T1 construct: expressed in transfected cells
T1 sequence (P32214 25-479 isoform P32214-2 limits assumed): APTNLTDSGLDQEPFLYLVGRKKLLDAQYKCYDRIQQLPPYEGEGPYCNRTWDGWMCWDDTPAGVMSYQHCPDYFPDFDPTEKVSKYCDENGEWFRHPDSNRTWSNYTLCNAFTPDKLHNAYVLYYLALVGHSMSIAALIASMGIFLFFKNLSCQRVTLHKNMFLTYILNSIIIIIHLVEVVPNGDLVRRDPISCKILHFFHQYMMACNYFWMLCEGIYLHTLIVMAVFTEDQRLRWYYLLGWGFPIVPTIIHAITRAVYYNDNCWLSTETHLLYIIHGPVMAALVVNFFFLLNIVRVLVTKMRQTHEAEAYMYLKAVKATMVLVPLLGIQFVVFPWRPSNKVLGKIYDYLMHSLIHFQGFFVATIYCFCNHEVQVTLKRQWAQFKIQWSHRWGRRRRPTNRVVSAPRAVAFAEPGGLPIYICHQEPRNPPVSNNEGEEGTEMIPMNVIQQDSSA
The experiment can be described thus: C1a/293 competitive binding, displacement of [125I]-human calcitonin (Example C). Conditions: HEK293 plasma membranes (C1a/293), [125I]-human calcitonin 20 pM. As to the method: Peptide compounds of the present invention may be evaluated for binding to the C1a receptor using the procedures described in Example C. The C1a receptor is the predominant mammalian calcitonin receptor subtype. C1a pcDNA construction and transfection were carried out as previously described (Albrandt et al. 1993, FEBS Letters, 325:225-232). HEK293 cell lines showing stable expression of the rat C1a-type calcitonin receptor (C1a/293) or the human C1a-type calcitonin receptor (1154/293) were selected by G418 resistance and limiting dilution culture methods. Plasma membranes were collected from homogenized HEK293 cells and used in the receptor binding assay. Individual test peptides at concentrations spanning 6 log units starting at around 10^-6 M were examined for their ability to displace [^125 I]-human calcitonin from the plasma membrane preparation using a 96-well microtiter plate format and scintillation counting with a Wallac LKB Beta plate counter. Competitive binding curves were constructed. Non-specific binding was measured in the presence of 100 nM calcitonin. Peptide potencies (IC50 's for competitive binding) were calculated by non-linear regression using Prism™ (version 2.01, GraphPAD Software, San Diego, Calif.).
C1a/293 Competitive Binding Studies:
Compounds were evaluated for competition in binding to the C1a receptor as follows:
Reference peptides used in these studies were purchased from Bachem (Torrance, Calif.). All other chemicals were of the highest commercial grade. [^35 S]-GTPγS was purchased from NEN Life Science Products, Inc., Pittsburgh, Pa. [^125 I]-human calcitonin was purchased from Amersham Pharmacia Biotech, Inc., Piscataway, N.J.
Methods for C1a pcDNA construction and transfection have been previously described (Albrandt, et al. 1993). HEK293 cell lines stably expressing the rat C1a-type calcitonin receptor (C1a/293) or the human C1a-type calcitonin receptor (1154/293) were selected by G418 resistance and limiting dilution culture methods.
Confluent cells were detached from tissue culture flasks by incubation with 5 mM EDTA in PBS. Cells were homogenized in ice-cold 20 mM HEPES, pH 7.4 with a Polytron homogenizer. Plasma membranes were collected using three cycles of washing in fresh buffer followed by centrifugation for 15 minutes at 48,000×g. The final membrane pellet was resuspended in 20 mM HEPES buffer containing 0.2 mM phenylmethylsulfonyl fluoride (PMSF) and stored at -70° C.
Assay buffer contained 5 μg/mL bestatin, 1 μg/mL phosphoramidon, 1 mg/mL bovine serum albumin (fraction V), 1 mg/mL bacitracin, 1 mM MgCl2, and 20 mM HEPES, pH 7.4. Membranes (2-5 μg membrane protein/well), [^125 I]-human calcitonin (20 pM), and peptides were combined in 200 μL buffer in 96-well microtiter plates. After a 60 minute incubation at room temperature, well contents were harvested onto polyethyleneimine-treated GF/B glass fiber pads using a Tomtec Mach II plate harvestor (Hamden, Conn.). Dried pads were combined with scintillant and counted on a Wallac LKB Beta Plate scintillation counter (Gaithersburg, Md.). For competitive binding curves, samples were run in duplicate over a 6 log concentration range starting at 10^-6 or 10^-7 M. Non-specific binding was measured in the presence of 100 nM human calcitonin.
Background: In a radioligand displacement assay an active substance lowers the binding of a labelled ligand.

One may read the IC50 as the midpoint of a concentration-inhibition curve. With `CC(C)C[C@H](NC(=O)[C@H](CCCNC(=N)N)NC(=O)[C@H](C)NC(=O)[C@@H](NC(=O)[C@H](C)NC(=O)[C@@H]1CSSC[C@H](NC(=O)[C@@H](N)CCCCN)C(=O)N[C@@H](CC(N)=O)C(=O)N[C@@H]([C@@H](C)O)C(=O)N[C@@H](C)C(=O)N[C@@H]([C@@H](C)O)C(=O)N1)[C@@H](C)O)C(=O)N[C@@H](C)C(=O)N[C@@H](C)C(=O)N[C@@H](Cc1ccccc1)C(=O)N[C@@H](CC(C)C)C(=O)N[C@@H](C)C(=O)N[C@@H](CCCNC(=N)N)C(=O)N[C@@H](CO)C(=O)N[C@@H](CO)C(=O)NCC(=O)N[C@@H](Cc1ccc(O)cc1)C(N)=O` [Example 1] (H-KCNTATCATARLAAFLARSSGY-NH2; disulfide 2-7), the “Example D ED50” value in experiment [1] is 0.26 µg. Moreover, in experiment [2], the IC50 was determined as 0.093 nM.
Take `CC(C)C[C@H](NC(=O)[C@H](CCCNC(=N)N)NC(=O)[C@H](C)NC(=O)[C@@H](NC(=O)[C@H](C)NC(=O)[C@@H]1CSSC[C@H](N)C(=O)N[C@@H](CC(N)=O)C(=O)N[C@@H]([C@@H](C)O)C(=O)N[C@@H](C)C(=O)N[C@@H]([C@@H](C)O)C(=O)N1)[C@@H](C)O)C(=O)N[C@@H](C)C(=O)N[C@@H](C)C(=O)N[C@@H](Cc1ccccc1)C(=O)N[C@@H](CC(C)C)C(=O)N[C@@H](C)C(=O)N[C@@H](CCCNC(=N)N)C(=O)N[C@@H](CO)C(N)=O` [Example 3] (H-CNTATCATARLAAFLARS-NH2; disulfide 1-6): the “Example D ED50” value in experiment [1] came to 0.45 µg. In addition, in experiment [2], the IC50 was 0.19 nM.
On the same counts, the results for `CC(C)C[C@H](NC(=O)[C@H](CCCNC(=N)N)NC(=O)[C@H](C)NC(=O)[C@@H](NC(=O)[C@H](C)NC(=O)[C@@H]1CSSC[C@H](NC(=O)[C@@H](N)CCCCN)C(=O)N[C@@H](CC(N)=O)C(=O)N[C@@H]([C@@H](C)O)C(=O)N[C@@H](C)C(=O)N[C@@H]([C@@H](C)O)C(=O)N1)[C@@H](C)O)C(=O)N[C@@H](C)C(=O)N[C@@H](CC(N)=O)C(=O)N[C@@H](Cc1ccccc1)C(=O)N[C@@H](CC(C)C)C(=O)N[C@H](C(=O)N[C@@H](CCCNC(=N)N)C(=O)N[C@@H](CO)C(=O)N[C@@H](CO)C(=O)NCC(=O)N[C@@H](Cc1ccc(O)cc1)C(N)=O)C(C)C` [Example 5] (H-KCNTATCATARLANFLVRSSGY-NH2; disulfide 2-7) are 9.3 µg and 1.4 nM.
On the same counts, the results for `CC(C)C[C@H](NC(=O)[C@H](CCCNC(=N)N)NC(=O)[C@H](C)NC(=O)[C@@H](NC(=O)[C@H](C)NC(=O)[C@H](C)NC(=O)[C@@H](NC(=O)[C@H](CO)NC(=O)[C@@H](N)CC(C)C)[C@@H](C)O)[C@@H](C)O)C(=O)N[C@@H](C)C(=O)N[C@@H](C)C(=O)N[C@@H](Cc1ccccc1)C(=O)N[C@@H](CC(C)C)C(=O)N[C@@H](C)C(=O)N[C@@H](CCCNC(=N)N)C(=O)N[C@@H](CO)C(N)=O` [Example 6] (H-LSTAATARLAAFLARS-NH2) are 1.34 µg and 1.4 nM.

The record behind these values is patent publication US6087334A, “Anti-diabetic peptides” (Amylin Pharmaceuticals, Inc., priority 1998, dated 2000).
